Assay results: patent US12083196B2, “Personal cleansing compositions with surfactants for increased foam performance” (ECOLAB USA INC., priority 2020, dated 2024)

Experiment: SITA Foam Analyzer foam decay
Format: physicochemical
Details: single surfactant, 1%, FIG. 2
Description: The reagents used below include: • Alpha-Step® PC-48 is a C10-16 sodium methyl 2-sulfolaurate and disodium 2-sulfolaurate available from Stepan; • Stepan-Mild® L3 is a predominantly C12 reaction product of lauryl alcohol and lactic acid available from Stepan; • SLES is sodium laureth sulfate; • Cola® Teric is an amphoteric sultaine available from Colonial Chemical, Inc.; • Glucopon® […] is an alkyl polyglycoside available from BASF Corporation; • Suga® Nate is a sodium laurylglucosides hydrooxypropylsulfonate available from Colonial Chemicals, Inc; • Lathanol® LAL is a sodium lauryl sulfoacetate available from Stepan. […] To rename sample measurement files, right click on the open sample window, and click “save” to rename your sample file • 8) If an error occurs at any point with your sample, the measurement reading can be stopped by clicking the red square “Stop icon” or by pressing the large red button on the machine • 9) Organize the graph generated with the icons in the fourth section of the tool bar: create new plot, add/remove data from plot, change axis properties, and view properties. […] Right click to rename the plot, insert or remove the plot and display the foam buildup, foam decay, or both The foam decay time was also measured. […]

## sodium laureth sulfate [SLES]
  loss of foaming over 10 minutes: about 20 mL
